Paper PMC3623729 (Journal of medicinal chemistry, 2013)
Entries after “also recorded” stand apart in the source; their conditions may differ. Where a name gives a salt, the structure may show the parent alone.

Target: T1, human RXRα (Homo sapiens, UniProt P19793)
T1 sequence (P19793 1-462): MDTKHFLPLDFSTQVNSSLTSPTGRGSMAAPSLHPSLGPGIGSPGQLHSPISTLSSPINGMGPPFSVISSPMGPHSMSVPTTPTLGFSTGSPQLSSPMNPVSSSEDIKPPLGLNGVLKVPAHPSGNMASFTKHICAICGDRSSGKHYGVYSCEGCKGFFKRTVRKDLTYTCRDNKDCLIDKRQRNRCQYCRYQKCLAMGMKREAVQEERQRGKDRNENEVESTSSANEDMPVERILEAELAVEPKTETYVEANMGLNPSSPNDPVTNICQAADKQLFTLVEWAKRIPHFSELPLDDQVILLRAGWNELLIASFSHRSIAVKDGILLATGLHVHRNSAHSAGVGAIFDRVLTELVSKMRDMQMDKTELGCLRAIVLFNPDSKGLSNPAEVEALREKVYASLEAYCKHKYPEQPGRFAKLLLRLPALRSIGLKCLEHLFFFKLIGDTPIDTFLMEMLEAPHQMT
Assay: RXRE-luciferase reporter gene assay
Format: cell-based
Settings: for Max IR: maximum induction ratio observed: compounds tested at variable concentrations

Row | SMILES | RXR activity in words (active / inactive) | Max IR: maximum induction ratio observed
1 | Cn1c2c(c3ccc(CC(=O)O)cc3c1=O)C(=O)c1ccccc1-2 [Compound 4, 2-(6-Methyl-5,11-dioxo-6,11-dihydro-5H-indeno[1,2-c]isoquinolin-3-yl)acetic Acid] | inactive | 
2 | Cn1c2c(c3ccc(/C=C/C#N)cc3c1=O)C(=O)c1ccccc1-2 [Compound 11, (E)-3-(6-Methyl-5,11-dioxo-6,11-dihydro-5H-indeno[1,2-c]isoquinolin-3-yl)acrylonitrile] | inactive | 
3 | COC(=O)/C=C/c1ccc2c3c(n(C)c(=O)c2c1)-c1ccccc1C3=O [Compound 12, (E)-Methyl 3-(6-Methyl-5,11-dioxo-6,11-dihydro-5H-indeno[1,2-c]isoquinolin-3-yl)acrylate] | inactive | 
4 | Cn1c2c(c3ccc(/C=C/C(=O)O)cc3c1=O)C(=O)c1ccccc1-2 [Compound 13, (E)-3-(6-Methyl-5,11-dioxo-6,11-dihydro-5H-indeno[1,2-c]isoquinolin-3-yl)acrylic Acid] | inactive | 
5 | Cn1c2c(c3ccc(CCCC(=O)O)cc3c1=O)C(=O)c1ccccc1-2 [Compound 19, 5-(6-Methyl-5,11-dioxo-6,11-dihydro-5H-indeno[1,2-c]isoquinolin-3-yl)butanoic Acid] | inactive | 
6 | Cn1c2c(c3ccc(C(=O)O)cc3c1=O)C(=O)c1ccccc1-2 [Compound 30, 6-Methyl-5,11-dioxo-6,11-dihydro-5H-indeno[1,2-c]isoquinoline-3-carboxylic Acid] | inactive | 
7 | Cn1c2c(c3ccc(C(N)=O)cc3c1=O)C(=O)c1ccccc1-2 [Compound 31, 6-Methyl-5,11-dioxo-6,11-dihydro-5H-indeno[1,2-c]isoquinoline-3-carboxamide] | inactive | 
8 | Cc1ccc2c3c(n(C)c(=O)c2c1)-c1ccccc1C3=O [Compound 36, 3,6-Dimethyl-5H-indeno[1,2-c]isoquinoline-5,11(6H)-dione] | not active | 
9 | Cn1c2c(c3ccc(C=O)cc3c1=O)C(=O)c1ccccc1-2 [Compound 37, 6-Methyl-5,11-dioxo-6,11-dihydro-5H-indeno[1,2-c]isoquinoline-3-carbaldehyde] | inactive | 
10 | Cn1c2c(c3ccc(C#N)cc3c1=O)C(=O)c1ccccc1-2 [Compound 39, 3-Cyano-5,11-dihydro-6-methyl-5,11-dioxoindeno[1,2-c]isoquinoline] | inactive | 
11 | Cn1c2c(c3ccc(NC(=O)C(=O)O)cc3c1=O)C(=O)c1ccccc1-2 [Compound 45] | inactive | 
12 | COC(=O)CC(=O)Nc1ccc2c3c(n(CCCN)c(=O)c2c1)-c1ccccc1C3=O [Compound 52] | active | 
13 | NCCCn1c2c(c3ccc(NCC(=O)O)cc3c1=O)C(=O)c1ccccc1-2 [Compound 61] | active | 
14 | COC(=O)c1ccc2c3c(n(CCCn4ccnc4)c(=O)c2c1)-c1ccccc1C3=O [Compound 68, Methyl 6-(3-(1H-Imidazol-1-yl)propyl)-5,11-dioxo-6,11-dihydro-5H-indeno[1,2-c]isoquinoline-3-carboxylate Hydrochloride] | inactive; also recorded: lack of activity | 
15 | COC(=O)c1ccc2c3c(n(CCCN4CCOCC4)c(=O)c2c1)-c1ccccc1C3=O [Compound 69, Methyl 6-(3-Morpholinopropyl)-5,11-dioxo-6,11-dihydro-5H-indeno[1,2-c]isoquinoline-3-carboxylate] | inactive; also recorded: lack of activity | 
16 | COC(=O)c1ccc2c3c(n(CCCN)c(=O)c2c1)-c1ccccc1C3=O.Cl [Compound 73, Methyl 6-(3-Aminopropyl)-5,11-dioxo-6,11-dihydro-5H-indeno[1,2-c]isoquinoline-3-carboxylate Hydrochloride] |  | NA (NA: Max IR not determined because IR < 2.)

The next lines start with results.

Row | RXR activity in words (active / inactive) | SMILES | Max IR: maximum induction ratio observed
17 | active | COC(=O)c1ccc2c3c(n(CCCN(C)C)c(=O)c2c1)-c1ccccc1C3=O.Cl [Compound 70, Methyl 6-(3-(Dimethylamino)propyl)-5,11-dioxo-6,11-dihydro-5H-indeno[1,2-c]isoquinoline-3-carboxylate Hydrochloride] | 
18 | lack of activity | Cl.NCCCn1c2c(c3ccc(C(=O)O)cc3c1=O)C(=O)c1ccccc1-2 [Compound 72, 6-(3-Aminopropyl)-5,11-dioxo-6,11-dihydro-5H-indeno[1,2-c]isoquinoline-3-carboxylic Acid Hydrochloride] | NA (NA: Max IR not determined because IR < 2.)
19 | lack of activity | COC(=O)/C=C/c1ccc2c3c(n(CCCN)c(=O)c2c1)-c1ccccc1C3=O.Cl [Compound 87, (E)-Methyl 3-(6-(3-Aminopropyl)-5,11-dioxo-6,11-dihydro-5H-indeno[1,2-c]isoquinolin-3-yl)acrylate Hydrochloride] | NA (NA: Max IR not determined because IR < 2.)
20 | inactive | O=C1c2ccccc2-c2c1c1ccc(Br)cc1c(=O)n2CCCn1ccnc1 [Compound 91, 3-Bromo-6-(3-(1H-imidazol-1-yl)propyl)-5,11-dioxo-6,11-dihydro-5H-indeno[1,2-c]isoquinoline] | 
21 | inactive | O=C1c2ccccc2-c2c1c1ccc(Br)cc1c(=O)n2CCCN1CCOCC1 [Compound 92, 3-Bromo-6-(3-morpholinopropyl)-5,11-dioxo-6,11-dihydro-5H-indeno[1,2-c]isoquinoline] | NA (NA: Max IR not determined because IR < 2.)
22 | active | CN(C)CCCn1c2c(c3ccc(Br)cc3c1=O)C(=O)c1ccccc1-2 [Compound 93, 3-Bromo-6-(3-(dimethylamino)propyl)-5,11-dioxo-6,11-dihydro-5H-indeno[1,2-c]isoquinoline] | 
23 | inactive | O=C1c2ccccc2-c2c1c1ccc(Br)cc1c(=O)n2CCCO [Compound 94, 3-Bromo-5,6-dihydro-6(3-hydroxypropyl)-5,11-dioxo-indeno[1,2-c]isoquinoline] | 
24 | active | CNCCCn1c2c(c3ccc(Br)cc3c1=O)C(=O)c1ccccc1-2 [Compound 95, 3-Bromo-5,6-dihydro-6-(3-N-methylaminopropyl)-5,11-dioxo-indeno[1,2-c]isoquinoline] | 
25 | inactive | O=C(O)CCn1c2c(c3ccc(Br)cc3c1=O)C(=O)c1ccccc1-2 [Compound 97, Lithium 6(2-Carboxyethyl)-3-bromo-5,6-dihydro-5,11-dioxo-11H-indeno[1,2-c]isoquinoline] | NA (NA: Max IR not determined because IR < 2.)
26 | inactive | O=C1c2ccccc2-c2c1c1ccccc1c(=O)n2CCCn1ccnc1 [Compound 102, 5,6-Dihydro-6-(3-imidazolyl-1-propyl)-5,11-dioxo-11H-indeno[1,2-c]isoquinoline] | NA (NA: Max IR not determined because IR < 2.)
27 | active; also recorded: high activity | CN(C)CCCn1c2c(c3ccccc3c1=O)C(=O)c1ccccc1-2 [Compound 103, 5,6-Dihydro-6-(3-(dimethylamino)-1-propyl)-5,11-dioxo-11Hindeno[1,2-c]isoquinoline] | 
28 | inactive | C[N+](C)(C)CCCn1c2c(c3ccccc3c1=O)C(=O)c1ccccc1-2.[I-] [Compound 104, 6-(3-(Trimethylammonium)propyl)-5H-indeno[1,2-c]isoquinoline-5,11(6H)-dione Iodide] | NA (NA: Max IR not determined because IR < 2.)
29 | active; also recorded: high activity | CNCCCn1c2c(c3ccccc3c1=O)C(=O)c1ccccc1-2 [Compound 105, 6-(3-(Methylamino)propyl)-5H-indeno[1,2-c]isoquinoline-5,11(6H)-dione] | 
30 | inactive | O=C(O)CCn1c2c(c3ccccc3c1=O)C(=O)c1ccccc1-2 [Compound 106, 3-(5,11-Dioxo-5H-indeno[1,2-c]isoquinolin-6(11H)-yl)propanoic Acid] | NA (NA: Max IR not determined because IR < 2.)
31 | inactive | NC(=O)CCn1c2c(c3ccccc3c1=O)C(=O)c1ccccc1-2 [Compound 107, 3-(5,11-Dioxo-5H-indeno[1,2-c]isoquinolin-6(11H)-yl)propanamide] | NA (NA: Max IR not determined because IR < 2.)
32 | inactive | COCCCn1c2c(c3ccccc3c1=O)C(=O)c1ccccc1-2 [Compound 108, 6-(3-Methoxypropyl)-5H-indeno[1,2-c]isoquinoline-5,11(6H)-dione] | 
33 | inactive | CCCCn1c2c(c3ccccc3c1=O)C(=O)c1ccccc1-2 [Compound 109, 6-Butyl-5H-indeno[1,2-c]isoquinoline-5,11(6H)-dione] | 
34 | detrimental for activity | CN(C)CCCn1c2c(c3ccc([N+](=O)[O-])cc3c1=O)C(=O)c1ccccc1-2 [Compound 113, 6-(3-(Dimethylamino)propyl)-3-nitro-5H-indeno[1,2-c]isoquinoline-5,11(6H)-dione] | NA (NA: Max IR not determined because IR < 2.)
